For one data set, the system named is DNA. Particulars: K. Mustafayeva et al., J. Nat. Prod. 2010, 73, 99-103; cited from earlier work.
The test system of data set [1] is Normal human fibroblasts (NHF). The data set can be described thus: Hyaluronan production (Hyaluronan Assay Kit). It is filed as cell-based. Particulars: TGFbeta1 10 ng/ml, positive control. On the procedure: Gentiana extract (Gentiana acaulis/Gentiana septemfida, 25/75 m/m) was used. Normal human fibroblasts (NHF) P2+1 were seeded at 5000 cell/well in 96 well cell culture plates (Nunclon) in MEM 10% FCS (Pan Biotech). After three days of growth, Gentiana extract solution was added in medium without FCS and incubated the cells for an additional three days. Secreted hyaluronan in the growth medium was measured using a Hyaluronan Assay Kit (K-1200, Echelon, Salt Lake City, Utah).

On to `C=C[C@@H]1C2=CCOC(=O)C2=CO[C@H]1O[C@@H]1O[C@H](CO)[C@@H](O)[C@H](O)[C@H]1O` [gentiopicroside], for which the genotoxic effects reported result with DNA is “DNA damaging, mutagenic, and clastogenic effects”.
As to “TGFbeta1: TGFbeta1 (10 ng/ml), served as positive control for hyaluronan production”, the “stimulation of hyaluronan production compared to untreated cells” value in data set [1] is given as 45.6±1.1%.
